SMILES strings stand for the structures.

The values that follow come from PMC8890100 (Chemical Science, 2022).

One test deals with T1, PPARγ–LBD (Homo sapiens, UniProt P37231).
T1 sequence (P37231 238-503 limits assumed): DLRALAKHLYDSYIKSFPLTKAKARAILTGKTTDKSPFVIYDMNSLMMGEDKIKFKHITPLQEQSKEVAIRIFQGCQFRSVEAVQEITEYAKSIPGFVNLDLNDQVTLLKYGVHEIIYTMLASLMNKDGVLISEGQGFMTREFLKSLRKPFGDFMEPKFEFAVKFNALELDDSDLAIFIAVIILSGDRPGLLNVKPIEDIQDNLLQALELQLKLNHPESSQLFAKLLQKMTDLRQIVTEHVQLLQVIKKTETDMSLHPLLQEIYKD
Description: 2D fluorescence anisotropy. It is filed as binding. The note with it: ligand excess vs no ligand. In general terms: Polarisation of emitted light reports the rotation of a fluorescent probe.

The next test concerns the target PPARγ·MED1 (Homo sapiens, UniProt P37231). Description: 2D-ITC of ligand to PPARγ in the presence of MED1 in cell and syringe. It is filed as binding. The note with it: for cooperativity value α: ITC, PPARγ·ligand·MED1 complex; for −TΔΔS: cooperative effect of MED1 on ligand binding.

As to `CC[C@@H](Oc1cccc(CN(CCCOc2ccc(OC)cc2)c2nc3ccccc3o2)c1)C(=O)O` [Pemafibrate], on PPARγ–LBD, the “EC50 shift (fold enhancement of PPARγ/MED1 EC50)” value is “smaller EC50 shift”.
For the compound `CN(CCOc1ccc(CC2SC(=O)NC2=O)cc1)c1ccccn1` (centres unmarked) [Rosiglitazone], on PPARγ·MED1, the “cooperativity value α” value is recorded as 28 and the “−TΔΔS” value was -2.3 kcal/mol.
For the compound `CCCc1nc2c(C)cc(-c3nc4ccccc4n3C)cc2n1Cc1ccc(-c2ccccc2C(=O)O)cc1` [Telmisartan], the “EC50 shift (fold enhancement of PPARγ/MED1 EC50)” value at PPARγ–LBD is given as “smaller EC50 shift”.
In the case of `CCO[C@@H](Cc1ccc(OCCc2ccc(OS(C)(=O)=O)cc2)cc1)C(=O)O` [Tesaglitazar], the “EC50 shift (fold enhancement of PPARγ/MED1 EC50)” value on PPARγ–LBD is recorded as 24 fold. On PPARγ·MED1, the “cooperativity value α” value came to 18 and the “−TΔΔS” value was -3.5 kcal/mol. For the same compound, on PPARγ·MED1 (ligand binding to PPARγ in the presence of MED1), the ΔH was found to be 21.0 kcal/mol.
